Publication PMC3598492, “Cannabinoid receptor type 2 (CB2)-selective N-aryl-oxadiazolyl-propionamides: synthesis, radiolabelling, molecular modelling and biological evaluation” (Organic and Medicinal Chemistry Letters, 2012)
pKi: −log10 of the molar value.

Legend:
hCB2 = biological target: T1, hCB2 (Homo sapiens, UniProt P34972); experiment: Competitive [3H]CP55,940 binding on membrane homogenates of hCB2-CHO cells; details: hCB2 versus hCB1
T1 construct: host or cells: CHO (hCB2-CHO), crude membrane homogenates
Procedure: (§1) CHO cell lines stably transfected with human CB1 (hCB1-CHO; obtained from Euroscreen, Gosselies, Belgium) or human CB2 (hCB2-CHO; obtained from Paul L. Prather, Department of Pharmacology and Toxicology, College of Medicine, University of Arkansas for Medical Sciences, USA) were cultured in Ham's F12 medium or Dulbecco's modified Eagle's medium (DMEM) with 10% fetal calf serum, 100 IU/mL penicillin, 100 μg/mL streptomycin and 250 or 400 μg/mL of the selection antibiotic Geneticin (G418), respectively. The cells were cultured in a humidified atmosphere with 5% CO2 at 37°C. Confluent cell layers of 175-cm^2 flasks were scraped; cells were harvested by centrifugation (800 rpm, 3 min), counted by trypan blue staining, suspended in 200 μL of 50 mM tris(hydroxymethyl)aminomethane (TRIS; pH 7.4) at 4°C and stored at −32°C until the binding experiment.
(§2) Competitive binding experiments were performed with crude membrane homogenates obtained from hCB1-CHO or hCB2-CHO cells as described above. […] Incubations were terminated by rapid filtration through a GF-B glass fibre filter pre-incubated for 90 min at room temperature in freshly prepared 0.5% polyvinylpyrrolidone + 0.1% Tween 20 solution using a 48-well cell harvester (Brandel, Gaithersburg, MD, USA).
The corresponding inhibition constants (Ki) of test compounds were derived from the IC50 values using the Cheng-Prusoff equation [49]. All binding experiments were performed in triplicates, and data are given as mean values from independent experiments.

[1] = biological target: T2, CB2 receptors in mouse spleen tissue (Mus musculus, UniProt P47936); experiment: Autoradiographic displacement of [3H]CP55,940 on coronal mouse spleen sections; type: binding; details: read-out: Fractional occupancy of [3H]CP55,940 binding sites calculated by Gaddum equation
T2 construct: 12-μm-thick coronal sections obtained from the spleens of three animals; from tissue; host or cells: spleen sections of female CD-1 mice
Procedure: Animal experiments were performed under procedures approved by the State of Saxony Animal Care and Use Committee and conducted in accordance with the German Law for the Protection of Animals. Female CD-1 mice (10 to 12 weeks old, 20 to 25 g), obtained from the Medizinisch-Experimentelles Zentrum der Universität Leipzig (Leipzig, Germany), were used for the experiments.
The animals were anesthetized and sacrificed, and their spleens were rapidly removed and frozen in isopentane at −35°C. The spleens were brought to −15°C in a cryostat (Microm International GmbH, Walldorf, Germany), and a series of 12-μm-thick coronal sections obtained from the spleens of three animals were collected in parallel on microscopic glass slides. The sections were dried at room temperature and stored at −35°C until they were processed for receptor binding autoradiography.
For autoradiographic experiments, the slides were brought to room temperature, dried in a stream of cold air, pre-incubated in a binding buffer (50 mM TRIS (pH 7.4) at 21°C, 5% BSA) for 15 min at room temperature and dried again in a stream of cold air. […] Samples were washed twice for 30 min at 4°C in 50 mM TRIS (pH 7.4) at 4°C, containing 1% BSA, dipped briefly in ice-cold deionized water (5 s), dried in a stream of cold air and exposed along with [^3H] standards (Amersham/GE Healthcare, Piscataway, NJ, USA) for 14 days to [^3H]-sensitive screen plates (Fuji Photo Film, Co. Ltd., Tokyo, Japan).
The image plates were analysed using a BAS-1800II system bioimaging analyser (Fuji Photo Film, Co. Ltd., Tokyo, Japan). Scan data were visualized and processed by computer-assisted microdensitometry (Aida version 2.31, Raytest Isotopenmessgeräte GmbH, Straubenhardt, Germany). Irregular regions of interest (ROIs) were drawn on selected areas of the spleen labelled as red pulp (low-density binding) and white pulp (high-density binding) according to Lynn and Herkenham and Massi et al..

hCB1 = biological target: T3, hCB1 (Homo sapiens, UniProt P21554); experiment: Competitive [3H]CP55,940 binding on membrane homogenates of hCB1-CHO cells; details: hCB1-CHO; read-out: Ki hCB1
T3 construct: host or cells: CHO (hCB1-CHO), crude membrane homogenates
Procedure: as §1, §2
Binding data were analysed using GraphPad Prism version 2.01 (GraphPad Software, Inc., San Diego, CA, USA) by non-linear regression to provide estimates of the half maximal inhibitory concentration (IC50) values and the […]. […] The corresponding inhibition constants (Ki) of test compounds were derived from the IC50 values using the Cheng-Prusoff equation [49]. All binding experiments were performed in triplicates, and data are given as mean values from independent experiments.

T3 sequence (P21554 whole entry): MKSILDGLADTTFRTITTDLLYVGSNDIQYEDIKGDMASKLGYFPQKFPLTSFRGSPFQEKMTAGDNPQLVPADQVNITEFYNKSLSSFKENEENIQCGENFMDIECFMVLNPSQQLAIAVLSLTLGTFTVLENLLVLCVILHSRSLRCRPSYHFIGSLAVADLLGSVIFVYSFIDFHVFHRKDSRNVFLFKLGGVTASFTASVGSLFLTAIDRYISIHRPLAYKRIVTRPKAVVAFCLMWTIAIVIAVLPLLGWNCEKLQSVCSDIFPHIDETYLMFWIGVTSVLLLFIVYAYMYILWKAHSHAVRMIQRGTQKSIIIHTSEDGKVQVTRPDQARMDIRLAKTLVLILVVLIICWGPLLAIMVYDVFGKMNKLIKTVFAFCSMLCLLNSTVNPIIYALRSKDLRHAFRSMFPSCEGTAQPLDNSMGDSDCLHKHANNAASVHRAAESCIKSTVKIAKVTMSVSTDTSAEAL
T2 sequence (P47936 whole entry): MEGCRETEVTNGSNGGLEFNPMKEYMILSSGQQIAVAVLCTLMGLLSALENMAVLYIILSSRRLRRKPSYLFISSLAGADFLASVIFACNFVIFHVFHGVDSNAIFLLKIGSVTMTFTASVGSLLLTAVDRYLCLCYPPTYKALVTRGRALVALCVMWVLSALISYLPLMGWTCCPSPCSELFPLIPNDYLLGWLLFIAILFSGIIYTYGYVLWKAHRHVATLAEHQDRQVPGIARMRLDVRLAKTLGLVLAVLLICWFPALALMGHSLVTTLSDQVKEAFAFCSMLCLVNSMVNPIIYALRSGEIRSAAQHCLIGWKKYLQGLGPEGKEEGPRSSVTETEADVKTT
T1 sequence (P34972 whole entry): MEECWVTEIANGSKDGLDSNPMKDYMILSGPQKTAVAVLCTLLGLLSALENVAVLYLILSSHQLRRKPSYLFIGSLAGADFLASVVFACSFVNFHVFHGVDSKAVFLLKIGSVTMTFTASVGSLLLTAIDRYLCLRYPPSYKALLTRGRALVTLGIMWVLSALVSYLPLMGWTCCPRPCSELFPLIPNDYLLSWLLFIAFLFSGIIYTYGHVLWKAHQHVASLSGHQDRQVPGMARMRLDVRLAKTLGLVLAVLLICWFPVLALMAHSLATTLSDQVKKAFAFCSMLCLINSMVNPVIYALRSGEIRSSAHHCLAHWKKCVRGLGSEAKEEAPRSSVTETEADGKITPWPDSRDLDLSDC

SMILES: CCn1c2ccccc2c2cc(NC(=O)CCc3nc(-c4ccc(F)cc4Br)no3)ccc21 [Compound 6e, 3-(3-(2-Bromo-4-fluorophenyl)-1,2,4-oxadiazol-5-yl)-N-(9-ethyl-9H-carbazol-3-yl)propanamide]
- Selectivity over hCB1 (hCB2): more than 1,000 fold
- receptor occupancy at 1 µM [1]: 97%
- pKi (hCB1): < 6.00
